US8759366B2, “Aminopyrimidines as SYK inhibitors” (Merck Sharp & Dohme Corp., priority 2009, dated 2014)
Read-outs that look alike come from different tables or passages of the source. Values belong to the compound of their own block, whether it stands above or below them.

Columns and labels:
[1] = biological target: T1, recombinant human SYK (GST-hSYK fusion protein) (Homo sapiens (Human), UniProt P43405); assay: biochemical
From the text: (§1) Homogeneous Time-Resolved Fluorescence (HTRF) Assay for the Recombinant Human SYK Enzyme:

[2] = biological target: T1, recombinant human SYK (GST-hSYK fusion protein)
From the text: as §1

[3] = read-out: rhSYK Activity, Table 113C
[4] = read-out: rhSYK Activity, Table 33B
[5] = read-out: rhSYK Activity, recombinant human SYK, HTRF assay, class symbols
[6] = read-out: rhSYK Activity, Table 21
[7] = read-out: rhSYK Activity, Table 36A
[8] = read-out: rhSYK Activity, Table 15
[9] = read-out: rhSYK Activity, Table 119, HTRF assay, IC50 class symbols

IC50 [1]: < 100 nM
Compound: COc1ccnc(Nc2cc(C)cc(-c3cnc([C@]4(F)CC[C@@H](C(=O)O)CC4)s3)c2)n1 [Example 113D-13]

IC50 [2, 3]: < 100 nM
Compound: Cc1cc(Nc2nccc(C(C)(C)C)n2)cc(-c2cnc(C3(O)CCNC(=O)CC3)s2)c1 (stereo not shown) [113C-9]

IC50 [2, 4]: < 100 nM
Compound: Cc1cc(Nc2nccc(C)n2)cc(-c2cnc(C3(O)CCC(C(=O)O)C(c4ccc(F)cc4)C3)s2)c1 (stereo not shown) [Example 33B-31]

IC50 [2, 5]: < 100 nM
Compound: Cc1cc(Nc2nccc(C(F)(F)F)n2)cc(-c2cnc(C3(O)CCN(C(=O)Nc4ccc(Cl)cc4C)CC3)s2)c1 [Example 54A-69]

IC50 ([2]; read-out: rhSYK Activity, Table 116A): 100 to 1000 nM
Compound: Cc1cc(Nc2ncc(Cl)c(O)n2)cc(-c2cnc(C3(O)CCC(C(=O)O)C(C)(C)C3)s2)c1 (stereo not shown) [116A-29]

IC50 [2, 6]: < 100 nM
Compound: FC(F)(F)c1ccnc(Nc2cccc(-c3cnc(CCN4CCCC4=S)s3)c2)n1 [Example 21-16]

IC50 [2, 4]: < 100 nM
Compound: Cc1cc(Nc2nccc(C(F)(F)F)n2)cc(-c2cnc(C3(O)CCC(C(=O)O)C(C(C)C)C3)s2)c1 (single isomer, unassigned) [Example 33B-22]

IC50 [2, 5]: < 100 nM
Compound: COc1nc(Nc2cc(C)cc(-c3cnc(C4(O)CCCN(C(=O)c5cnn[nH]5)CC4)s3)c2)ncc1Cl (single isomer, unassigned) [Example 54D-32]

IC50 ([2]; read-out: rhSYK Activity, Table 26): 1000 to 10000 nM
Compound: CCOC(=O)C1CCC(F)(c2ncc(-c3cccc(Nc4nccc(C(F)(F)F)n4)c3)s2)CC1 (stereo not shown) [Example 26-5]

IC50 [2, 7]: < 100 nM
Compound: Cc1cc(Nc2nccc(C(F)(F)F)n2)cc(-c2cnc(C3CCCC(=O)C3)s2)c1 (stereo not shown) [Example 36A-8]

IC50 [2, 8]: < 100 nM
Compound: CC(O)(c1ncc(-c2cccc(Nc3nccc(C(F)(F)F)n3)c2)s1)C1CC1 (stereo not shown) [Example 15-3]

IC50 ([2]; read-out: rhSYK Activity, Table 113A): 100 to 1000 nM
Compound: CCOC(=O)C1CCC(O)(c2ncc(-c3cc(C)cc(Nc4nccc(OCCCOC)n4)c3)s2)CC1C (stereo not shown) [Example 113A-47]

IC50 [2, 8]: < 100 nM
Compound: OC(c1ncc(-c2cccc(Nc3nccc(C(F)(F)F)n3)c2)s1)(C1CC1)C1CC1 [Example 15-1]

IC50 [2, 4]: < 100 nM
Compound: Cc1cc(Nc2nccc(C)n2)cc(-c2cnc(C3(O)CCC(C(=O)O)C(C)C3)s2)c1 (single isomer, unassigned) [Example 33B-33]

IC50 [2, 3]: < 100 nM
Compound: Cc1cc(Nc2ncc(F)c(C)n2)cc(-c2cnc(C3(O)CCNC(=O)CC3)s2)c1 (stereo not shown) [113C-1]

IC50 [2, 4]: < 100 nM
Compound: Cc1cc(Nc2nccc(C(F)(F)F)n2)cc(-c2cnc(C3(O)CC(C(=O)O)C(C)(C)C3)s2)c1 (stereo not shown) [Example 33B-3]

IC50 ([2]; read-out: rhSYK Activity, Table 113D, upper part): 100 to 1000 nM
Compound: COC(=O)c1ccc(C2(c3ncc(-c4cc(C)cc(Nc5nccc(C(F)(F)F)n5)c4)s3)CC2)cc1 [Example 113D-8]

IC50 [2, 9]: < 100 nM
Compound: Cc1cc(Nc2nccc(C(F)(F)F)n2)cc(-c2cnc(C3(O)CCC(C(=O)NCc4ccno4)CC3)s2)c1 (stereo not shown) [Example 119-43]

IC50 ([2]; read-out: rhSYK activity): < 100 nM
Compound: Cc1cc(Nc2nccc(OCCN3CC(F)C(F)C3)n2)cc(-c2cnc(C3(O)CCC3)s2)c1 (stereo not shown) [Example 108A-5]

IC50 [2, 6]: < 100 nM
Compound: O=C(NC1CC1)C1CCC(c2ncc(-c3cccc(Nc4nccc(C(F)(F)F)n4)c3)s2)CC1 (stereo not shown) [Example 21-13]

IC50 ([2]; read-out: rhSYK Activity, Table 33D): < 100 nM
Compound: Cc1cc(Nc2nccc(C(F)(F)F)n2)cc(-c2cnc(C(C)(O)c3ccc(NC(=O)CCC(=O)O)cc3)s2)c1 (stereo not shown) [Example 33D-14]

IC50 [2, 9]: < 100 nM
Compound: Cc1cc(Nc2nccc(C(F)(F)F)n2)cc(-c2cnc(C3(O)CCC(C(=O)NCc4cccc5c4CNC5=O)CC3)s2)c1 (stereo not shown) [Example 119-98]

Compound: Cc1cc(Nc2nccc(C(F)(F)F)n2)cc(-c2cnc(C3(O)CCC(C(=O)N4CCC5(CC4)OCCO5)CC3)s2)c1 (stereo not shown) [Example 119-140]
IC50 [2, 9]: < 100 nM

IC50 [2, 4]: < 100 nM
Compound: Cc1cc(Nc2nccc(C(F)(F)F)n2)cc(-c2cnc(C3(O)CCC(C(=O)O)C(C)C3C)s2)c1 (single isomer, unassigned) [Example 33B-38]

IC50 ([2]; read-out: rhSYK Activity, Table 33-A): < 100 nM
Compound: CCOC(=O)C1(C)CCC(O)(c2ncc(-c3cc(C)cc(Nc4nccc(C(F)(F)F)n4)c3)s2)CC1 (stereo not shown) [33A-10]

IC50 [2, 5]: < 100 nM
Compound: Cc1cc(Nc2nccc(C(F)(F)F)n2)cc(-c2cnc(C3(O)CCCN(C(=O)c4ccc(O)c(F)c4)CC3)s2)c1 (racemic) [Example 54D-103]

IC50 [2, 7]: 100 to 1000 nM
Compound: Cc1cc(Nc2nccc(C(F)(F)F)n2)cc(-c2cnc(C3CCC4(CC3)OCCO4)s2)c1 [Example 36A-12]

IC50 [2, 4]: < 100 nM
Compound: Cc1cc(Nc2nccc(C(F)(F)F)n2)cc(-c2cnc(C3(O)CC(C(=O)O)C(C)(C)C3)s2)c1 (single isomer, unassigned) [Example 33B-5]

IC50 [2, 5]: < 100 nM
Compound: CCCCNC(=O)N1CCC(O)(c2ncc(-c3cc(C)cc(Nc4nccc(C(F)(F)F)n4)c3)s2)CC1 [Example 54A-61]

IC50 ([2]; read-out: rhSYK activity): < 100 nM
Compound: CCCSc1ccnc(Nc2cc(C)cc(-c3cnc(C4(O)CCC4)s3)c2)n1 [Example 108A-42]

IC50 [2, 4]: < 100 nM
Compound: Cc1cc(Nc2nccc(C(F)(F)F)n2)cc(-c2cnc(C3(O)CCCC(c4ccc(C(=O)O)cc4)C3)s2)c1 (single isomer, unassigned) [Example 33B-15]
